Laboratory results as given in publication PMC8216263 (Pharmaceutical Biology, 2021).

Target: T1, OCT2 (Homo sapiens, UniProt O15244)
T1 construct: host or cells: S2 (second portion of proximal tubule) cells
T1 sequence (O15244 1-555): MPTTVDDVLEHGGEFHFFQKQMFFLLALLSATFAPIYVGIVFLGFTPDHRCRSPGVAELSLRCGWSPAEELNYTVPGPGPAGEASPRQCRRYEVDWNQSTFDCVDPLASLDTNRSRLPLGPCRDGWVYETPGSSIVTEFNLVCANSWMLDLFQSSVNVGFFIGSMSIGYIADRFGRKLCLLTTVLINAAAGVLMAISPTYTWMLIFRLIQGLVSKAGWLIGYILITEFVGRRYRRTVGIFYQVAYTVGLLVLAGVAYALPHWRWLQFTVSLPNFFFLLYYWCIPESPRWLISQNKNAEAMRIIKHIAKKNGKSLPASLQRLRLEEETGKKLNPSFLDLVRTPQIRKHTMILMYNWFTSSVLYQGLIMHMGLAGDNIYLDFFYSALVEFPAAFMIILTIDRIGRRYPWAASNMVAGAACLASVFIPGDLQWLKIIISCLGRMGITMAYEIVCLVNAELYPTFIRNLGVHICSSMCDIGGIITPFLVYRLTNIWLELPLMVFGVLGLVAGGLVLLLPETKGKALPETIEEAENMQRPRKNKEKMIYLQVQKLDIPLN
Assay: Inhibition of OCT2-mediated 14C-TEA uptake in S2-OCT2 cells
Assay type: cell-based
Details: GA at 150 and 500 μg/L; PCA 100 to 1000 μg/L; p < 0.05 vs control
Description: Cells were cultured in DMEM supplemented with 10% FBS, 100 units/mL penicillin and 100 units/mL streptomycin. […] Cell culture flasks, 24-well cell culture plates, and transwell polycarbonate inserts (12 mm diameter, 0.4 μm pore size) were purchased from Corning Co-star Corp. (Bedford, MA).
The MDCK-OAT1, S2-OAT3, S2-OCT2 and HEK293-OATP1B1 cell lines were utilized in this study. […] Briefly, S2-OAT3, S2-OCT2 and S2-mock cells were trypsinized and uniformly suspended in the culture medium’s designated volume to provide a density of 2.0 × 10^5 cells/mL. A 1.0-mL aliquot of the cell suspension was added into each well of 24-well insert plates. HEK293-OATP1B1, MDCK-OAT1 and their mock cells were seeded in 24-well plates at a density of 1.5 × 10^5 cells/well. […] Three washes terminated the experiment with ice-cold DPBS buffer after removing the incubation buffer. Cells were lysed with 400 μL of […] sodium hydroxide solution. The cell lysate and 3.0 mL of aquasol-2 scintillation fluid were put into a scintillation flask. […] The final concentration of DMSO in the assay was less than 0.1%. All experiments were performed in triplicate.

**Q.** Which “effect on OCT2-mediated uptake of 14C-TEA” value does the source give for `O=C(O)c1ccc(O)c(O)c1` [PCA, protocatechuic acid] here?
**A.** statistical decline
